Measurements from patent publication EP0880540B1, “17-BETA-CYCLOPROPYL(AMINO/OXY) 4-AZA STEROIDS AS ACTIVE INHIBITORS OF TESTOSTERONE 5-ALPHA-REDUCTASE AND C17-20-LYASE” (Aventis Pharmaceuticals Inc., priority 1996, dated 1997).

Target: T1, cynomolgus monkey C17,20 lyase (Macaca fascicularis, UniProt Q2XVA1)
T1 construct: microsomal preparations of the enzyme from testicular tissue; from tissue; host or cells: cynomolgus monkey testes, microsomes
T1 sequence (Q2XVA1 1-508): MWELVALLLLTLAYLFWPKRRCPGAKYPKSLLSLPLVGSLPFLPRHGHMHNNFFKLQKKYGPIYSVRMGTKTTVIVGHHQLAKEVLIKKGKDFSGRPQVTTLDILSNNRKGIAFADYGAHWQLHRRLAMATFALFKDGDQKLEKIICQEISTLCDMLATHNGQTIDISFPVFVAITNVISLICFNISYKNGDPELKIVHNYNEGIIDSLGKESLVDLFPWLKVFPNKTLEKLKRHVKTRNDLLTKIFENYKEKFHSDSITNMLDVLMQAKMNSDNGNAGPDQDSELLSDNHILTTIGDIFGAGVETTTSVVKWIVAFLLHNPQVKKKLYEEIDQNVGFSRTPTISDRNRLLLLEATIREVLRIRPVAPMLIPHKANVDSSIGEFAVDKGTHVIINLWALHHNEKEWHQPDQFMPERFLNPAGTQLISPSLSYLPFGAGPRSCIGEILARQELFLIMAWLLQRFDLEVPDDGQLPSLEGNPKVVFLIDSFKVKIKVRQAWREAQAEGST
Assay: In vitro C17,20 lyase assay, testicular microsomes
Assay type: biochemical
Settings: mean of duplicates
Description: In vitro C17,20 lyase assays: Compounds were tested for inhibition of cynomolgus monkey C17,20 lyase in vitro using microsomal preparations of the enzyme from testicular tissue. Testes were removed from anesthetized animals and flash frozen in liquid nitrogen. Microsomes were isolated as described in Schatzman et al., Anal. Biochem. 175, 219-226 (1988). The compound to be tested was dissolved in dimethyl sulfoxide and diluted in 0.05 M potassium phosphate buffer, pH 7.4, to give the desired concentrations of test compound, in an amount which contributed 0.1% v/v DMSO to the total assay volume. Assays contained 0.05 M potassium phosphate buffer, pH 7.4, an NADPH regenerating system (1 mM NADPH, 5 mM glucose-6-phosphate, 1 IU/mL glucose-6-phosphate dehydrogenase), test compound, substrate and microsomal protein in a total volume of 0.2 mL. Control assays contained all components, including dimethyl sulfoxide, but not test ccmpound. All assays were performed in duplicate. The test compound was incubated with 20 to 62 µg/mL microsomal protein, buffer, and the NADPH regenerating system described above at 34°C for 0 or 40 minutes. Aliquots of 180 µL were then removed and assayed for enzyme activity by addition to 7-[^3H]-17α-hydroxypregnenolone (11.2 mCi/mmole; 0.2 µCi per assay) plus unlabeled 17α-hydroxypregnenolone dissolved in DMSO, contributing 2.5% v/v to the final assay mix, and phosphate buffer to give a total substrate concentration of 0.05 µM (=Km) per assay and subsequent incubation at 34°C for 6 minutes. Each assay was terminated by addition of 5 mL of chloroform:methanol (2:1). Carrier steroids representing substrates and produces (17α-hydroxypregnenolone, dehydroepiandrosterone, and androst-5-ene-3β,17β-diol) and 0.8 mL of distilled, deionized water were also added at this time. The steroids were extracted by the method of Moore and Wilson (Methods in Enzymol., eds. O. Malley, B.W. and Hardman, J.G. 36, 1975, pp. 466-474). The organic phase containing the steroids was evaporated using nitrogen gas, the residues dissolved in 18% tetrahydrofuran (v/v) in hexane, and the steroids were separated by HPLC on a Si60 (5 µm) column (250 x 4 mm) using a gradient of 18-22% tetrahydrofuran (v/v) in hexane. Radioactivity in the steroid peaks was measured using a Radiomatic® Model ES or Model A515 Flo-One® detector.
The enzyme activity for each assay was calculated from the percent conversion of substrate to products, and the results were expressed as percent inhibition of control. The following results were obtained, wherein the values indicated are the mean of duplicate determinations: Table 1: […]

SMILES | inhibition at 0.1 µM (preincubation 0 min) [%] | inhibition at 0.1 µM (preincubation 40 min) [%] | inhibition at 1 µM (preincubation 0 min) [%] | inhibition at 1 µM (preincubation 40 min) [%] | inhibition at 10 µM (preincubation 0 min) [%] | inhibition at 10 µM (preincubation 40 min) [%]
CN1C(=O)CC[C@@]2(C)C1=CC[C@H]1[C@@H]3CC[C@H](OC4CC4)[C@@]3(C)CC[C@@H]12 (stereo in doubt) [MDL 104,313, 17β-Cyclopropyloxy-4-methyl-4-aza-androst-5-en-3-one] | -18.4 | -8.7 | 23.8 | 39.9 | 63.6 | 70.2
CC12C=CC(=O)N[C@@H]1CCC1C2CCC2(C)C1CC[C@@H]2OC1CC1 (stereo partly drawn) [MDL 103,129, 17β-Cyclopropyloxy-4-aza-5α-androst-1-en-3-one] | 6.4 | 18.3 | 40.7 | 46.9 | 77.3 | 84.3
